The series concerns rodent carcinogenicity bioassays, tumor incidence. Kind of series: CCRIS carcinogenicity studies. The procedure, abridged:
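NCI-built, expert-reviewed records of carcinogenicity and related test outcomes (mutagenicity, tumor promotion/inhibition) compiled from published and report sources, historical span 1985-2011, not updated.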

Among the data in PubChem BioAssay AID1259411 (Chemical Carcinogenesis Research Information System (CCRIS), 2018) are carcinogen call values, retold here.

Calls of active or inactive are those of the source. No rule for the calls is given here.

Consider `CO/N=C(/C(=O)OC)c1ccccc1COc1ccccc1C`, for which the carcinogen call runs as follows: (Species: Mouse, Strain/Sex: Strain not specified by Department of Pesticide Regulation /Female (50/Group), Route: Oral, Dose: 0, 81, 400, 1662 mg/kg/day of 93.7-96.6% kresoxim-methyl in diet for 18 mo, study duration 18 mo, Dose: 0, 81, 400, 1662 mg/kg/day of 93.7-96.6% kresoxim-methyl in diet for 18 mo, study duration 18 mo) “inactive; negative”; (Species: Mouse, Strain/Sex: Strain not specified by Department of Pesticide Regulation /Male (50/Group), Route: Oral, Dose: 0, 60, 304, 1305 mg/kg/day of 93.7-96.6% kresoxim-methyl in diet for 18 mo, study duration 18 mo, Dose: 0, 60, 304, 1305 mg/kg/day of 93.7-96.6% kresoxim-methyl in diet for 18 mo, study duration 18 mo) “inactive; negative”; (Species: Rat, Strain/Sex: Wistar/Female (20/Group), Route: Oral, Dose: 0, 12, 48, 503, 985 mg/kg/day of 93.7-96.6% kresoxim-methyl in diet for 24 mo, study duration 24 mo, Dose: 0, 12, 48, 503, 985 mg/kg/day of 93.7-96.6% kresoxim-methyl in diet for 24 mo, study duration 24 mo, Tumor Site: Type of Lesion: Liver: hepatocellular carcinoma (1/20, 0/20, 2/20, 6/20, 6/20)) “active; positive”; (Species: Rat, Strain/Sex: Wistar/Female (50/Group), Route: Oral, Dose: 0, 12, 47, 497, 1046 mg/kg/day of 93.7-96.6% kresoxim-methyl in diet for 24 mo, study duration 24 mo, Dose: 0, 12, 47, 497, 1046 mg/kg/day of 93.7-96.6% kresoxim-methyl in diet for 24 mo, study duration 24 mo, Tumor Site: Type of Lesion: Liver: hepatocellular carcinoma (1/50, 1/50, 2/50, 13/50, 16/50)) “active; positive”; (Species: Rat, Strain/Sex: Wistar/Male (20/Group), Route: Oral, Dose: 0, 9, 36, 370, 746 mg/kg/day of 93.7-96.6% kresoxim-methyl in diet for 24 mo, study duration 24 mo, Dose: 0, 9, 36, 370, 746 mg/kg/day of 93.7-96.6% kresoxim-methyl in diet for 24 mo, study duration 24 mo, Tumor Site: Type of Lesion: Liver: hepatocellular carcinoma (0/20, 1/20, 1/20, 3/20, 8/20)) “active; positive”; (Species: Rat, Strain/Sex: Wistar/Male (50/Group), Route: Oral, Dose: 0, 9, 36, 375, 770 mg/kg/day of 93.7-96.6% kresoxim-methyl in diet for 24 mo, study duration 24 mo, Dose: 0, 9, 36, 375, 770 mg/kg/day of 93.7-96.6% kresoxim-methyl in diet for 24 mo, study duration 24 mo, Tumor Site: Type of Lesion: Liver: hepatocellular carcinoma (7/50, 5/50, 2/50, 18/50, 11/50). Spleen: hemangiosarcoma (0/50, 0/50, 2/50, 2/50, 3/50)) “active; positive”.

In the case of `NC(=O)/C(=C\c1ccc([N+](=O)[O-])o1)c1ccco1`, the carcinogen call is “active; positive” (Species: HAMSTER, Strain/Sex: SYRIAN/MALE, Route: ORAL, Dose: 0.25% IN DIET, Tumor Site: Type of Lesion: FORESTOMACH: PAPILLOMA, SQUAMOUS CELL CARCINOMA, BILE DUCT: ADENOMA); “active; positive” (Species: MOUSE, Strain/Sex: CD-1/MALE,FEMALE, Route: ORAL, Dose: 0.4% IN DIET FOR 18 MO, Tumor Site: Type of Lesion: FORESTOMACH: PAPILLOMA, SQUAMOUS CELL CARCINOMA); “active; positive” (Species: MOUSE, Strain/Sex: DDY/MALE, Route: ORAL, Dose: 0.25% IN DIET FOR 308 DAYS, Tumor Site: Type of Lesion: FORESTOMACH: SQUAMOUS CELL CARCINOMA); “active; positive” (Species: MOUSE, Strain/Sex: ICR/MALE,FEMALE, Route: ORAL, Dose: 0.08, 0.4% IN DIET FOR 440 DAYS, Tumor Site: Type of Lesion: FORESTOMACH: PAPILLOMA, SQUAMOUS CELL CARCINOMA); “active; positive” (Species: RAT, Strain/Sex: WISTAR/FEMALE, Route: ORAL, Dose: 0.08, 0.4% IN DIET FOR 18 MO, Tumor Site: Type of Lesion: MAMMARY GLAND: ADENOCARCINOMA, FORESTOMACH: PAPILLOMA); “active; positive” (Species: RAT, Strain/Sex: WISTAR/MALE, Route: ORAL, Dose: 0.4% IN DIET FOR 18 MO, Tumor Site: Type of Lesion: FORESTOMACH: PAPILLOMA).

In the case of `Cc1cc2ccccc2c2cc([N+](=O)[O-])c3ccccc3c12`, the carcinogen call reads like this: (Species: MOUSE, Strain/Sex: SWISS/FEMALE, Route: INTRAPERITONEAL, Dose: 0, 100 NMOL (TOTAL DOSE) ADMINISTERED 1/7, 2/7 AND 4/7 ON DAY 1, 8 AND 15 RESPECTIVELY (STUDY DURATION: 32 WK), Tumor Site: Type of Lesion: LUNG: TUMOR) “active; positive”; (Species: MOUSE, Strain/Sex: SWISS/MALE, Route: INTRAPERITONEAL, Dose: 0, 100 NMOL (TOTAL DOSE) ADMINISTERED 1/7, 2/7 AND 4/7 ON DAY 1, 8 AND 15 RESPECTIVELY (STUDY DURATION: 32 WK), Tumor Site: Type of Lesion: LIVER: TUMOR, LUNG: TUMOR) “active; positive”.

In the case of `CCOS(C)(=O)=O`, the carcinogen call reads like this: (Species: MOUSE, Route: INTRAPERITONEAL, Tumor Site: Type of Lesion: LUNG, KIDNEY) “active; positive”; (Species: MOUSE, Route: SUBCUTANEOUS, Tumor Site: Type of Lesion: LUNG) “active; positive”; (Species: MOUSE, Strain/Sex: ICR/FEMALE, Route: SUBCUTANEOUS, Dose: 0, 20 UMOL/MOUSE IN TRIOCTANOIN INTO LEFT FLANK, 1/WK FOR 52 WK (STUDY DURATION: 450 D), Tumor Site: Type of Lesion: THYMUS GLAND: LYMPHOMA, LUNG: ADENOMA) “active; positive”; (Species: RAT, Route: INTRAPERITONEAL, Tumor Site: Type of Lesion: LUNG, KIDNEY) “active; positive”.

In the case of `O=[N+]([O-])c1ccc2c3c1ccc1cccc(c13)[C@@H]1O[C@H]21`, the carcinogen call is, setting by setting: (Species: MOUSE, Strain/Sex: B6C3F1/FEMALE, Route: INTRAPERITONEAL, Dose: 0, 7 NMOL (TOTAL DOSE), 1/7, 2/7 AND 4/7 OF THE TOTAL DOSE ADMINISTERED WITHIN 24 HR OF BIRTH AND AT 8 AND 15 D OF AGE) “inactive; negative”; (Species: MOUSE, Strain/Sex: B6C3F1/MALE, Route: INTRAPERITONEAL, Dose: 0, 7 NMOL (TOTAL DOSE), 1/7, 2/7 AND 4/7 OF THE TOTAL DOSE ADMINISTERED WITHIN 24 HR OF BIRTH AND AT 8 AND 15 D OF AGE) “inactive; negative”.

Regarding `Nc1ccc(C(=O)Nc2ccccc2N)cc1`, the carcinogen call by setting is: (Species: RAT, Strain/Sex: CD-1/FEMALE, Route: GAVAGE, Dose: 0, 1, 3, 9 (WK 1-25), 6 (WK 26-46), 5 (WK 47-106) MG/KG IN 0.8% METHOCEL (TOTAL VOLUME 0.2-0.5 ML/RAT 2/WK FOR 105 WK (M, Dose: 0, 1, 3, 9 (WK 1-25), 6 (WK 26-46), 5 (WK 47-106) MG/KG IN 0.8% METHOCEL (TOTAL VOLUME 0.2-0.5 ML/RAT 2/WK FOR 105 WK (M, Tumor Site: Type of Lesion: ADRENAL GLAND: TUMOR, OVARIES: TUMOR, VAGINA: TUMOR, Tumor Site: Type of Lesion: ADRENAL GLAND: TUMOR, OVARIES: TUMOR, VAGINA: TUMOR) “active; positive”; (Species: RAT, Strain/Sex: CD-1/MALE, Route: GAVAGE, Dose: 0, 1, 3, 9 (WK 1-25), 6 (WK 26-46), 5 (WK 47-106) MG/KG IN 0.8% METHOCEL(TOTAL VOLUME 0.2-0.5 ML/RAT 2/WK FOR 105 WK (ME, Dose: 0, 1, 3, 9 (WK 1-25), 6 (WK 26-46), 5 (WK 47-106) MG/KG IN 0.8% METHOCEL(TOTAL VOLUME 0.2-0.5 ML/RAT 2/WK FOR 105 WK (ME, Tumor Site: Type of Lesion: ADRENAL GLAND: TUMOR, TESTES: TUMOR) “active; positive”.

Regarding `CCN(N=O)C(C)=O`, the carcinogen call was “active; positive” (Species: MOUSE, Strain/Sex: BALB/C/MALE, Route: ORAL, Dose: 0, 1000, 2000 PPM IN DRINKING WATER FOR 2 WK (STUDY DURATION: 52 WK), Dose: 0, 1000, 2000 PPM IN DRINKING WATER FOR 2 WK (STUDY DURATION: 52 WK), Tumor Site: Type of Lesion: LUNG: TUMOR) and “inactive; negative” (Species: RAT, Strain/Sex: WISTAR/MALE, Route: ORAL, Dose: 0, 1000, 2000 PPM IN DRINKING WATER FOR 2 WK (STUDY DURATION: 52 WK), Dose: 0, 1000, 2000 PPM IN DRINKING WATER FOR 2 WK (STUDY DURATION: 52 WK)).
